Columns and labels:
[1] = test system: S. pneumoniae D39V; test: fitness (endpoint OD595 vs no drug) (fraction); higher = more growth
How it was run: (§1)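 At 37 °C, bacteria in TSB, LB Lennox or CY were grown in 384-well plates from a starting OD595 of 0.01. OD595 was measured every 30 min for 14 h, with the first reading used as background. Fitness is the optical density at the switch to stationary phase as a fraction of the robust mean of no-drug control wells, capped at 1.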

[2] = test system: B. subtilis 168; test: as above
How it was run: as §1

[3] = test system: S. aureus DSM 20231; test: Bliss interaction score (quartile over a dose matrix) (fitness difference); higher = more antagonism (negative = synergy)
How it was run: (§2)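 The Bliss score takes observed fitness and subtracts the expected fitness, calculated as a product of single-drug fitness values. Those single-drug values were inferred from the combination data. Fitness is OD595 at entry into stationary phase divided by the plate's robust no-drug mean, capped at 1, and the score is summarised by quartiles across technical, biological and donor/recipient replicates.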

[4] = test system: S. aureus Newman; test: as above
How it was run: as §2

[5] = test system: S. pneumoniae D39V; test: as above
How it was run: as §2

[6] = test system: B. subtilis 168; test: as above
How it was run: as §2

[7] = test system: S. aureus DSM 20231; test: fitness (endpoint OD595 vs no drug) (fraction); higher = more growth
How it was run: as §1
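Wherever Bliss interaction score (quartile over a dose matrix) is given: first quartile when negative (synergy) and third quartile when positive (antagonism).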
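Wherever fitness (endpoint OD595 vs no drug) is given: OD595 on entry to stationary phase over no-drug wells; at most 1.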

CN(C)C(=O)C(CCN1CCC(O)(c2ccc(Cl)cc2)CC1)(c1ccccc1)c1ccccc1 [Loperamide] + C[n+]1ccc(-c2cc[n+](C)cc2)cc1 [Paraquat]
fitness
Conditions	partner 1.25 µg/mL	partner 1.5 µg/mL	partner 2.5 µg/mL	partner 3 µg/mL	partner 5 µg/mL	partner 6 µg/mL
[1], first compound 17.14 µg/mL	–	0.994	–	0.984	–	0.922
[1], first compound 34.28 µg/mL	–	0.972	–	0.973	–	0.883
[2], first compound 25 µg/mL	0.798	–	0.684	–	0.537	–
[2], first compound 50 µg/mL	0.0367	–	0.0251	–	0.0432	–
[2], first compound 100 µg/mL	0.0324	–	0.0267	–	0.0238	–

fitness, [1], one replicate
Conditions	first compound 20 µg/mL	first compound 40 µg/mL	first compound 68.57 µg/mL	first compound 80 µg/mL
partner 1.5 µg/mL	≥ 1	≥ 1	0.934	≥ 1
partner 3 µg/mL	≥ 1	≥ 1	0.931	≥ 1
partner 6 µg/mL	≥ 1	≥ 1	0.853	≥ 1

Conditions	Bliss interaction score
[3]	0.177
[4]	0.0662
[5]	0.0549
[6]	-0.103

CN(C)C(=O)C(CCN1CCC(O)(c2ccc(Cl)cc2)CC1)(c1ccccc1)c1ccccc1 [Loperamide] + Cc1cc(NS(=O)(=O)c2ccc(N)cc2)no1 [Sulfamethoxazol]
fitness
Conditions	partner 1 µg/mL	partner 2 µg/mL	partner 4 µg/mL
[1], first compound 17.14 µg/mL	0.92	0.936	0.989
[1], first compound 34.28 µg/mL	0.953	0.95	0.998
[2], first compound 25 µg/mL	–	–	0.857
[2], first compound 100 µg/mL	–	0.0238	0.156

fitness, one replicate
Conditions	first compound 20 µg/mL	first compound 25 µg/mL	first compound 40 µg/mL	first compound 50 µg/mL	first compound 68.57 µg/mL	first compound 80 µg/mL	first compound 100 µg/mL
[1], partner 1 µg/mL	≥ 1	–	≥ 1	–	0.967	0.249	–
[1], partner 2 µg/mL	≥ 1	–	≥ 1	–	0.968	0.89	–
[1], partner 4 µg/mL	0.941	–	0.942	–	≥ 1	0.752	–
[2], partner 0.5 µg/mL	–	0.0806	–	0.009	–	–	0.0009

Conditions	Bliss interaction score
[3]	-0.143
[4]	0.0631
[5]	0.0594
[6]	-0.178

CN(C)C(=O)C(CCN1CCC(O)(c2ccc(Cl)cc2)CC1)(c1ccccc1)c1ccccc1 [Loperamide] + Cc1ncc([N+](=O)[O-])n1CCO [Metronidazole]
Conditions	fitness
[1], first compound 17.14 µg/mL, partner 1.25 µg/mL	0.983
[1], first compound 17.14 µg/mL, partner 2.5 µg/mL	≥ 1
[1], first compound 17.14 µg/mL, partner 5 µg/mL	0.99
[1], first compound 20 µg/mL, partner 1.073 µg/mL	≥ 1
[1], first compound 20 µg/mL, partner 2.145 µg/mL	0.921
[1], first compound 20 µg/mL, partner 4.29 µg/mL	0.973
[1], first compound 34.28 µg/mL, partner 1.25 µg/mL	0.99
[1], first compound 34.28 µg/mL, partner 2.5 µg/mL	≥ 1
[1], first compound 34.28 µg/mL, partner 5 µg/mL	0.979
[1], first compound 40 µg/mL, partner 1.073 µg/mL	≥ 1
[1], first compound 40 µg/mL, partner 4.29 µg/mL	0.96
[1], first compound 80 µg/mL, partner 1.073 µg/mL	0.938
[1], first compound 80 µg/mL, partner 2.145 µg/mL	0.898
[1], first compound 80 µg/mL, partner 4.29 µg/mL	0.95
[2], first compound 25 µg/mL, partner 0.625 µg/mL	0.918
[2], first compound 25 µg/mL, partner 1.25 µg/mL	0.891
[2], first compound 25 µg/mL, partner 2.5 µg/mL	0.895
[2], first compound 100 µg/mL, partner 1.25 µg/mL	0.214
[2], first compound 100 µg/mL, partner 2.5 µg/mL	0.203

[1], first compound 68.57 µg/mL, one replicate
Conditions	fitness
partner 1.25 µg/mL	≥ 1
partner 2.5 µg/mL	0.944
partner 5 µg/mL	≥ 1

Conditions	Bliss interaction score
[3]	0.0627
[4]	0.064
[5]	0.0877
[6]	0.268

CN(C)C(=O)C(CCN1CCC(O)(c2ccc(Cl)cc2)CC1)(c1ccccc1)c1ccccc1 [Loperamide] + Cc1onc(-c2ccccc2)c1C(=O)N[C@@H]1C(=O)N2[C@@H]1SC(C)(C)[C@@H]2C(=O)O [Oxacillin]
Conditions	fitness
[1], first compound 17.14 µg/mL, partner 0.01 µg/mL	0.976
[1], first compound 17.14 µg/mL, partner 0.02 µg/mL	0.878
[1], first compound 20 µg/mL, partner 0.01 µg/mL	0.99
[1], first compound 20 µg/mL, partner 0.02 µg/mL	0.869
[1], first compound 20 µg/mL, partner 0.04 µg/mL	0.156
[1], first compound 34.28 µg/mL, partner 0.01 µg/mL	0.908
[1], first compound 40 µg/mL, partner 0.01 µg/mL	0.859
[1], first compound 40 µg/mL, partner 0.04 µg/mL	0.109
[1], first compound 80 µg/mL, partner 0.04 µg/mL	0.0757
[2], first compound 25 µg/mL, partner 0.002 µg/mL	0.749
[2], first compound 25 µg/mL, partner 0.004 µg/mL	0.697
[2], first compound 50 µg/mL, partner 0.002 µg/mL	0.0423
[2], first compound 50 µg/mL, partner 0.004 µg/mL	0.0371
[2], first compound 50 µg/mL, partner 0.008 µg/mL	0.0519
[2], first compound 100 µg/mL, partner 0.002 µg/mL	0.0346
[2], first compound 100 µg/mL, partner 0.004 µg/mL	0.0357
[2], first compound 100 µg/mL, partner 0.008 µg/mL	0.0283

fitness, one replicate
Conditions	partner 0.01 µg/mL	partner 0.02 µg/mL	partner 0.04 µg/mL	partner 0.075 µg/mL	partner 0.15 µg/mL	partner 0.3 µg/mL
[1], first compound 68.57 µg/mL	0.979	0.901	0.618	–	–	–
[2], first compound 25 µg/mL	–	–	–	0.0507	0.0511	0.0488
[2], first compound 50 µg/mL	–	–	–	0.0519	0.0509	0.0494
[2], first compound 100 µg/mL	–	–	–	0.0598	0.0504	0.0472

Conditions	Bliss interaction score
[3]	-0.0615
[4]	0.077
[5]	-0.33
[6]	-0.0924

CCN(CC)CCOC(=O)c1ccc(N)cc1 [Procaine] + COc1cc(Cc2cnc(N)nc2N)cc(OC)c1OC [Trimethoprim]
fitness
Conditions	first compound 85.5 µg/mL	first compound 171 µg/mL	first compound 342 µg/mL
[2], partner 0.25 µg/mL	0.704	0.688	0.69
[2], partner 0.5 µg/mL	0.531	0.562	0.498
[7], partner 0.125 µg/mL	0.669	0.744	0.709
[7], partner 0.25 µg/mL	0.565	0.607	0.613
[7], partner 0.5 µg/mL	0.118	0.123	0.144
[7], partner 1 µg/mL	0.0274	0.0353	0.021

fitness, [2], one replicate
Conditions	partner 0.1 µg/mL	partner 0.125 µg/mL	partner 0.2 µg/mL	partner 0.4 µg/mL	partner 1 µg/mL	partner 2 µg/mL
first compound 85.5 µg/mL	0.877	0.771	0.722	0.555	0.393	0.277
first compound 171 µg/mL	0.836	0.775	0.783	0.544	0.444	0.295
first compound 342 µg/mL	0.83	0.742	0.832	0.555	0.37	0.383

Conditions	Bliss interaction score
[3]	-0.0543
[4]	0.0842
[5]	0.0954
[6]	0.0837

Source: the supplement of paper PMC10627819
